Series [1] can be described thus: Gastro-intestinal absorption and calcium-lowering effect after oral administration. Format: in vivo, CF mice. The note with it: 100 μg/kg in PBS, one hour, CT-RIA, N = 3, S.D. Here is the method:
CT and CT-P were orally administered to CF mice using a gavaging needle at a dose of 100 μg/kg in PBS. The mice, three of each group, were sacrificed 1 hour after the treatment, and the plasma was isolated from their blood. The levels of CT and calcium were measured by using commercial CT-RIA (Phoenix) and calcium diagnostic (Sigma Chemical Co.) kits, respectively. […] Furthermore, the level of calcium in plasma at 1 hour was lower in CT-P treated mice than that in CT treated mice, which was consistent with the finding in CT levels. Because the crossreactivity of CT-P to the anti-CT antibody is only about 10%, the actual concentration of total CT in the plasma of CT-P treated mice could be even higher than the value presented in Table 5.

Series [2] in a line: Plasma calcitonin and calcium after subcutaneous administration. Format: in vivo, mice. The note with it: s.c., 125 μg/kg in 10% Liposyn II. Here is the method:
Both CT and CT-P were iodinated with ^125 I using chloramine T method. ^125 I-CT or ^125 I-CT-P was injected s.c. into mice at a dose of 125 μg/kg in 10% Liposyn® II (Abbott). Groups of three mice were sacrificed at different time points. The levels of calcium in the blood samples were determined by using a commercial calcium diagnostic kit (Sigma Chemical Co.). The plasma from each mouse was isolated and treated with 5% trichloroacetic acid (TCA) in an ice bath. The radioactivity in the hs TCA precipitates were considered as the intact CT in the plasma.

Series [3] relates to Brattleboro rats with hereditary hypothalamic diabetes insipidus. Description: Anti-diuretic effects in rats with hereditary hypothalamic diabetes insipidus, subcutaneous. Format: in vivo. The note with it: s.c., 3.3 μg/kg in 10% Liposyn II, FIG. 7. Here is the method: Brattleboro rats, which carry the hereditary disease of hypothalamic diabetes insipidus, were used to compare the effects of DP and DP-P for alleviating the disease symptoms, i.e., polyuria and polydipsia. A group of three Brattleboro rats were kept separately in three metabolic cages. Their body weight, water intake and urine output were measured every day. DP and DP-P were dissolved in 10% Liposyn® II (Abbott Laboratories, Abbott Park, Ill., USA) and injected subcutaneously (s.c.) to each rat at doses ranging from 0.02 to 20 μg/kg. […] On the other hand, DP-P at the identical dose could maintain the rats symptom-free for more than 3 days, as indicated by the reduction of both water intake and urine output without significant change of the body weight.
In order to evaluate the dose-dependent responses to DP and DP-P in Battleboro rats, the effectiveness of anti-diuretic activity was defined as the length of time that a more than 50% reduction of the urine volume can be maintained in the treated animals.

In series [4] the test system is mouse fibroblasts L929 cells. The series is described as follows: Cellular uptake of HRPssPal. Format: cell-based. The note with it: 30 μg/ml, serum-free medium, 1 hour, 37° C. Here is the method:
Confluent monolayers of mouse fibroblasts L929 cells in 6-well culture cluster plates were incubated in serum-free medium with 30 μg/ml of HRP, either as the native form or as the palmitic acid conjugate (HRPssPal). After 1 hour at 37° C., monolayers were washed three times with PBS and then dissolved in 1 ml of 0.05% of Triton-X100. Cell-associated HRP was determined by measuring the enzymatic activity in each cell extract and the results converted to ng HRP per cell monolayer. […] Therefore, a 30-fold increase in cell uptake was achieved by modification of HRP with Pal-PDC.

Another series deals with Caco-2 monolayers. Format: in vitro ADME, Human. Here is the method:
Suspended Caco-2 cells in 1.5 ml of medium were seeded into the apical chamber of the transwells at a density of 0.5 million cells per insert. 2.5 ml of the medium was then added to the basal chambers of each transwell. The cells were allowed to attach for 2 days without disturbance and were then fed every other day until the experiments were performed. The cells were maintained for approximately 14-20 days prior to the experiments and were fed 24 hr before each experiment. The cell monolayers developed a transepithelial electrical resistance (TEER) of approximately 500-600 .OMEGA.) cm^2 within one week of the seeding and maintained this resistance for up to 21 days post-seeding.
Confluent cell monolayers, 2 to 3 weeks old, and having a TEER value of approximately 500 .OMEGA. cm^2, were first incubated with Dulbecco's MEM containing 1% of FBS for 30 min at 37° C. […] At predetermined times, the entire basal chamber medium (2.5 ml) from each transwell was removed and counted for radioactivity using a gamma counter. […] After the 24 hr samples were taken, the cell monolayers were rinsed three times with ice-cold PBS, cut out of the inserts, and counted for accumulated radioactivity using a gamma counter. […]
BBI was modified with 2 or 4 palmitic acids, and the transport was determined in transwells. […]

For the molecule `CC(C)C[C@H](NC(=O)[C@H](CCCCN)NC(=O)CNC(=O)[C@H](CC(C)C)NC(=O)[C@@H](NC(=O)[C@@H]1CSSC[C@H](N)C(=O)N[C@@H](CO)C(=O)N[C@@H](CC(N)=O)C(=O)N[C@@H](CC(C)C)C(=O)N[C@@H](CO)C(=O)N[C@@H]([C@@H](C)O)C(=O)N1)C(C)C)C(=O)N[C@@H](CO)C(=O)N[C@@H](CCC(N)=O)C(=O)N[C@@H](CCC(=O)O)C(=O)N[C@@H](CC(C)C)C(=O)N[C@@H](Cc1c[nH]cn1)C(=O)N[C@@H](CCCCN)C(=O)N[C@@H](CC(C)C)C(=O)N[C@@H](CCC(N)=O)C(=O)N[C@H](C(=O)N[C@@H](Cc1ccc(O)cc1)C(=O)N1CCC[C@H]1C(=O)N[C@@H](CCCNC(=N)N)C(=O)N[C@H](C(=O)N[C@@H](CC(N)=O)C(=O)N[C@H](C(=O)NCC(=O)N[C@@H](CO)C(=O)NCC(=O)N[C@H](C(=O)N1CCC[C@H]1C(N)=O)[C@@H](C)O)[C@@H](C)O)[C@@H](C)O)[C@@H](C)O` [CT, Salmon calcitonin], the “Plasma calcitonin concentration, CT” value in series [1] was 9.2 ± 0.7 pg/0.1 ml plasma. For the same molecule, the “Plasma clearance” value in series [2] is given as “rapid plasma clearance”.
As to `NC(=O)CC[C@@H]1NC(=O)[C@H](Cc2ccccc2)NC(=O)[C@H](Cc2ccc(O)cc2)NC(=O)CCSSC[C@@H](C(=O)N2CCC[C@H]2C(=O)N[C@H](CCCN=C(N)N)C(=O)NCC(N)=O)NC(=O)[C@H](CC(N)=O)NC1=O` [DP, Desmopressin], the “Time rats maintained symptom-free” value in series [3] was “less than one”.
For the molecule horseradish peroxidase [HRP], the Cellular uptake in series [4] turned out to be 7 ng HRP per cell monolayer.

B1: BBIssPal(4): BBI modified with 4 palmitic acids (conjugate, UniProt P01055 40-110, looked up)
Bowman-Birk type proteinase …: DDESSKPCCDQCACTKSNPPQCRCSDMRLNSCHSACKSCICALSYPAQCFCVDITDFCYEPCKPSEDDKEN
modifications: 4 palmityl disulfide groups
notes: BBI modified with 4 palmitic acids
Turning to B1, the “Internalization of the conjugates into the cells (rank)” value with Caco-2 monolayers is “highest uptake into the cells”.

The values are drawn from US6093692A, “Method and compositions for lipidization of hydrophilic molecules” (The University of Southern California, priority 1997, dated 2000).
